{
  "source": "ChEMBL document CHEMBL3124761",
  "about": "“Synthesis and biological evaluation of N,N'-squaramides with high in vivo efficacy and low toxicity: toward a low-cost drug against Chagas disease” (J Med Chem, 2014)",
  "key": {"Mus musculus [1]": {"system": "Mus musculus", "assay": "Toxicity in BALB/c albino mouse infected with blood trypomastigote stage of Trypanosoma cruzi assessed as decrease in alkaline phosphatase level in serum at 40 mg/kg, ip administered on day 7 to 12 post-infection measured after day 150 relative to control", "type": "organism-based", "design": "dose 40 mg/kg, route intraperitoneal; scale not given: the % may be the effect or the level left", "details": "in vivo"}, "Mus musculus [2]": {"system": "Mus musculus", "assay": "Toxicity in BALB/c albino mouse infected with blood trypomastigote stage of Trypanosoma cruzi assessed as decrease in alkaline phosphatase level in serum at 25 mg/kg, ip administered on day 7 to 12 post-infection measured after day 120 relative to control", "type": "organism-based", "design": "dose 25 mg/kg, route intraperitoneal; scale not given: the % may be the effect or the level left", "details": "in vivo"}, "Mus musculus [3]": {"system": "Mus musculus", "assay": "Toxicity in BALB/c albino mouse infected with blood trypomastigote stage of Trypanosoma cruzi assessed as change in ALT/GPT level in serum at 500 mg/kg, ip relative to control", "type": "organism-based", "design": "dose 500 mg/kg, route intraperitoneal", "details": "in vivo"}, "Mus musculus [4]": {"system": "Mus musculus", "assay": "Toxicity in BALB/c albino mouse infected with blood trypomastigote stage of Trypanosoma cruzi assessed as increase in AST/GOT level in serum at 40 mg/kg, ip administered on day 7 to 12 post-infection measured after day 150 relative to control", "type": "organism-based", "design": "dose 40 mg/kg, route intraperitoneal", "details": "in vivo"}, "Mus musculus [5]": {"system": "Mus musculus", "assay": "Toxicity in BALB/c albino mouse infected with blood trypomastigote stage of Trypanosoma cruzi assessed as increase in AST/GOT level in serum at 25 mg/kg, ip administered on day 7 to 12 post-infection measured after day 120 relative to control", "type": "organism-based", "design": "dose 25 mg/kg, route intraperitoneal", "details": "in vivo"}, "Mus musculus [6]": {"system": "Mus musculus", "assay": "Toxicity in BALB/c albino mouse infected with blood trypomastigote stage of Trypanosoma cruzi assessed as increase in LDH level in serum at 40 mg/kg, ip administered on day 7 to 12 post-infection measured after day 150 relative to control", "type": "organism-based", "design": "dose 40 mg/kg, route intraperitoneal", "details": "in vivo"}, "Mus musculus [7]": {"system": "Mus musculus", "assay": "Toxicity in BALB/c albino mouse infected with blood trypomastigote stage of Trypanosoma cruzi assessed as increase in creatinephophokinase-MB level in serum at 500 mg/kg, ip relative to control", "type": "organism-based", "design": "dose 500 mg/kg, route intraperitoneal", "details": "in vivo"}, "Mus musculus [8]": {"system": "Mus musculus", "assay": "Toxicity in BALB/c albino mouse infected with blood trypomastigote stage of Trypanosoma cruzi assessed as change in creatinephophokinase-MB level in serum at 25 mg/kg, ip administered on day 7 to 12 post-infection measured after day 120 relative to control", "type": "organism-based", "design": "dose 25 mg/kg, route intraperitoneal", "details": "in vivo"}, "Mus musculus [9]": {"system": "Mus musculus", "assay": "Toxicity in BALB/c albino mouse infected with blood trypomastigote stage of Trypanosoma cruzi assessed as change in uric acid level in serum at 500 mg/kg, ip", "type": "organism-based", "design": "dose 500 mg/kg, route intraperitoneal", "details": "in vivo"}, "Mus musculus [10]": {"system": "Mus musculus", "assay": "Toxicity in BALB/c albino mouse infected with blood trypomastigote stage of Trypanosoma cruzi assessed as change in uric acid level in serum at 40 mg/kg, ip administered on day 7 to 12 post-infection measured after day 150 relative to control", "type": "organism-based", "design": "dose 40 mg/kg, route intraperitoneal", "details": "in vivo"}, "Mus musculus [11]": {"system": "Mus musculus", "assay": "Toxicity in BALB/c albino mouse infected with blood trypomastigote stage of Trypanosoma cruzi assessed as increase in uric acid level in serum at 25 mg/kg, ip administered on day 7 to 12 post-infection measured after day 120 relative to control", "type": "organism-based", "design": "dose 25 mg/kg, route intraperitoneal", "details": "in vivo"}, "Mus musculus [12]": {"system": "Mus musculus", "assay": "Toxicity in BALB/c albino mouse infected with blood trypomastigote stage of Trypanosoma cruzi assessed as change in urea level in serum at 40 mg/kg, ip administered on day 7 to 12 post-infection measured after day 150 relative to control", "type": "organism-based", "design": "dose 40 mg/kg, route intraperitoneal", "details": "in vivo"}, "Mus musculus [13]": {"system": "Mus musculus", "assay": "Toxicity in BALB/c albino mouse infected with blood trypomastigote stage of Trypanosoma cruzi assessed as change in urea level in serum at 25 mg/kg, ip administered on day 7 to 12 post-infection measured after day 120 relative to control", "type": "organism-based", "design": "dose 25 mg/kg, route intraperitoneal", "details": "in vivo"}, "Trypanosoma cruzi [14]": {"system": "Trypanosoma cruzi", "assay": "Trypanocidal activity against blood trypomastigote stage of Trypanosoma cruzi infected in immunosuppressed BALB/c albino mouse chronic chagas disease model assessed as decrease in parasite burden in heart at 40 mg/kg, ip administered on day 7 to 12 post-infection measured on day 150 by PCR analysis relative to control", "type": "functional", "design": "scale not given: the % may be the effect or the level left", "details": "route intraperitoneal"}, "Trypanosoma cruzi [15]": {"system": "Trypanosoma cruzi", "assay": "Trypanocidal activity against blood trypomastigote stage of Trypanosoma cruzi infected in nonimmunosuppressed BALB/c albino mouse chronic chagas disease model assessed as increase in total Ig-G level at 40 mg/kg, ip administered on day 7 to 12 post-infection measured after day 150 by ELISA", "type": "functional, organism-based", "design": "dose 40 mg/kg"}, "Trypanosoma cruzi [16]": {"system": "Trypanosoma cruzi", "assay": "Trypanocidal activity against blood trypomastigote stage of Trypanosoma cruzi infected in immunosuppressed BALB/c albino mouse chronic chagas disease model assessed as increase in total Ig-G level at 40 mg/kg, ip administered on day 7 to 12 post-infection measured after day 150 by ELISA", "type": "functional, organism-based", "design": "dose 40 mg/kg"}, "Trypanosoma cruzi [17]": {"system": "Trypanosoma cruzi", "assay": "Trypanocidal activity against metacyclic trypomastigote stage of Trypanosoma cruzi infected in BALB/c albino mouse acute chagas disease model assessed as inhibition of parasitemia at 25 mg/kg, ip administered on day 7 to 12 post-infection measured every 2 days until day 40 […] relative to control", "type": "functional", "details": "route intraperitoneal"}, "Mus musculus [18]": {"system": "Mus musculus", "assay": "Toxicity in BALB/c albino mouse assessed as mortality at 25 mg/kg, ip administered for 5 days", "type": "organism-based", "design": "dose 25 mg/kg, route intraperitoneal", "details": "in vivo, 120 h"}, "Trypanosoma cruzi [19]": {"system": "Trypanosoma cruzi", "assay": "Antitrypanosomal activity against trypomastigote stage of Trypanosoma cruzi IRHOD/CO/2008/SN3 assessed as reduction of trypomastigote number per mililiter of culture medium at IC25 preincubated for 12 hrs followed by compound washout measured every 48 hrs for 10 days by Neubauer hemocytometric chamber analysis relative to control", "type": "functional"}, "Trypanosoma cruzi [20]": {"system": "Trypanosoma cruzi", "assay": "Antitrypanosomal activity against amastigote stage of Trypanosoma cruzi IRHOD/CO/2008/SN3 infected in African green monkey Vero cells assessed as reduction of amastigote number per cell at IC25 preincubated for 12 hrs followed by compound washout measured every 48 hrs for 10 days by Neubauer hemocytometric chamber analysis relative to control", "type": "functional"}, "Trypanosoma cruzi [21]": {"system": "Trypanosoma cruzi", "assay": "Antitrypanosomal activity against amastigote stage of Trypanosoma cruzi IRHOD/CO/2008/SN3 infected in African green monkey Vero cells assessed as decrease in infection rate at IC25 preincubated for 12 hrs followed by compound washout measured every 48 hrs for 10 days by Neubauer hemocytometric chamber analysis relative to control", "type": "functional"}, "Trypanosoma cruzi [22]": {"system": "Trypanosoma cruzi", "assay": "Antitrypanosomal activity against amastigote stage of Trypanosoma cruzi IRHOD/CO/2008/SN3 infected in African green monkey Vero cells assessed as parasite growth inhibition after 72 hrs by Giemsa staining-based microscopic analysis", "type": "functional, organism-based", "details": "IRHOD/CO/2008/SN3, Vero"}, "Trypanosoma cruzi [23]": {"system": "Trypanosoma cruzi", "assay": "Antitrypanosomal activity against epimastigote stage of Trypanosoma cruzi IRHOD/CO/2008/SN3 assessed as parasite growth inhibition after 72 hrs by Neubauer hemocytometric chamber analysis", "type": "functional, organism-based", "details": "IRHOD/CO/2008/SN3, 72 h"}, "[24]": {"assay": "Dissociation constant, pKa of the compound in aqueous solution", "type": "physicochemical"}, "Trypanosoma cruzi [25]": {"system": "Trypanosoma cruzi", "assay": "Antitrypanosomal activity against epimastigote stage of Trypanosoma cruzi IRHOD/CO/2008/SN3 assessed as appearance of swollen structure filled with empty vacuoles at IC25 after 72 hrs by TEM analysis", "type": "functional, organism-based"}, "Trypanosoma cruzi [26]": {"system": "Trypanosoma cruzi", "assay": "Antitrypanosomal activity against epimastigote stage of Trypanosoma cruzi IRHOD/CO/2008/SN3 assessed as change in excreted acetate level at IC25 after 96 hrs by 1H NMR analysis relative to control", "type": "functional"}, "Trypanosoma cruzi [27]": {"system": "Trypanosoma cruzi", "assay": "Antitrypanosomal activity against epimastigote stage of Trypanosoma cruzi IRHOD/CO/2008/SN3 assessed as change in excreted lactate level at IC25 after 96 hrs by 1H NMR analysis relative to control", "type": "functional"}, "Mus musculus [28]": {"system": "Mus musculus", "assay": "Toxicity in BALB/c albino mouse infected with blood trypomastigote stage of Trypanosoma cruzi assessed as increase in alkaline phosphatase level in serum at 500 mg/kg, ip relative to control", "type": "organism-based", "design": "dose 500 mg/kg, route intraperitoneal", "details": "in vivo"}},
  "note": "The source made the active and inactive calls. No cut-off for these calls is given here.",
  "data": [
    {"compound": "CCCCNc1c(N(C)CCCN(C)C)c(=O)c1=O", "values": [
      {"measurement": "Activity", "setting": "Mus musculus [1]", "value": 30, "unit": "%"},
      {"measurement": "Activity", "setting": "Mus musculus [2]", "value": 10, "unit": "%"},
      {"measurement": "Activity", "setting": "Mus musculus [3]", "value": "< 10", "unit": "%"},
      {"measurement": "Activity", "setting": "Mus musculus [4]", "value": 10, "unit": "%"},
      {"measurement": "Activity", "setting": "Mus musculus [5]", "value": 10, "unit": "%"},
      {"measurement": "Activity", "setting": "Mus musculus [6]", "value": 10, "unit": "%"},
      {"measurement": "Activity", "setting": "Mus musculus [7]", "value": "> 50", "unit": "%"},
      {"measurement": "Activity", "setting": "Mus musculus [8]", "value": "< 10", "unit": "%"},
      {"measurement": "Activity", "setting": "Mus musculus [9]", "value": "< 10", "unit": "%"},
      {"measurement": "Activity", "setting": "Mus musculus [10]", "value": "< 10", "unit": "%"},
      {"measurement": "Activity", "setting": "Mus musculus [11]", "value": 30, "unit": "%"},
      {"measurement": "Activity", "setting": "Mus musculus [12]", "value": "< 10", "unit": "%"},
      {"measurement": "Activity", "setting": "Mus musculus [13]", "value": "< 10", "unit": "%"},
      {"measurement": "Activity", "setting": "Trypanosoma cruzi [14]", "value": 83.3, "unit": "%"},
      {"measurement": "Activity", "setting": "Trypanosoma cruzi [15]", "value": "Active"},
      {"measurement": "Activity", "setting": "Trypanosoma cruzi [16]", "value": "Active"},
      {"measurement": "inhibition in vivo at 25 mg/kg", "setting": "Trypanosoma cruzi [17]", "value": 67, "unit": "%"},
      {"measurement": "Activity", "setting": "Mus musculus [18]", "value": "Non-toxic"},
      {"measurement": "inhibition (INH)", "setting": "Trypanosoma cruzi [19]", "value": 75, "unit": "%"},
      {"measurement": "inhibition (INH)", "setting": "Trypanosoma cruzi [20]", "value": 52, "unit": "%"},
      {"measurement": "inhibition (INH)", "setting": "Trypanosoma cruzi [21]", "value": 67, "unit": "%"},
      {"measurement": "IC50", "setting": "Trypanosoma cruzi [22]", "value": 8.5, "unit": "µM"},
      {"measurement": "IC50", "setting": "Trypanosoma cruzi [23]", "value": 9.4, "unit": "µM"},
      {"measurement": "pKa", "setting": "[24]", "value": 8.8},
      {"measurement": "Activity", "setting": "Trypanosoma cruzi [25]", "value": "Active"},
      {"measurement": "Activity", "setting": "Trypanosoma cruzi [26]", "value": -18.6, "unit": "%"},
      {"measurement": "Activity", "setting": "Trypanosoma cruzi [27]", "value": -28.3, "unit": "%"},
      {"measurement": "Activity", "setting": "Mus musculus [28]", "value": "> 50", "unit": "%"}
    ]}
  ]
}
